“Also recorded” adds a separate entry of the source.
Columns and labels:
DENV sNS1 secretion [1] = system: DENV sNS1 secretion
Method: Vero cells were infected with DENV-1 at an MOI of 1 for 2 h at 37° C. An uninfected control was included. At seven hours post infection, cells were either mock-treated or treated with D-threo-1-phenyl-2-palmitoylamino-3-pyrrolidino-1-propanol (P4; Calbiochem, San Diego, Calif.) at 2 or 5 μM, combined or not with 1 mM DMJ (Calbiochem, San Diego, Calif.). At 24 hours post infection, cells were washed and incubated for 1 h in methionine/cysteine-free DMEM before metabolically labeling proteins for 4 h in methionine/cysteine-free DMEM supplemented with a mix of ^35S-labeled methionine/cysteine. The NS1 protein was then immunoprecipitated from cell lysates prepared in 25 mM Tris-HCl pH 7.6, 150 mM NaCl, 1% NP-40, 1% sodium deoxycholate, 0.1% SDS, or from the supernatant, with anti-NS1 MAb 13A1 (kindly provided by Dr. Robert Putnak). Immunoprecipitated proteins were separated by SDS-PAGE and detected on an X-ray film.

Vero cells = conditions: 5 μM P4, Vero cells
DENV sNS1 protein = test: Inhibition of DENV sNS1-mediated endothelial cell activation (E-selectin cell-based ELISA in HUVEC); parameters: species or system Dengue virus (DENV-1)
Method: Activation of endothelial cells by the DENV sNS1 protein has been monitored by the production of adhesion molecule E-selectine, as previously described (Kayal et al., 1999). Briefly, HUVEC cell monolayers were incubated with various concentrations of the purified sNS1 protein for different periods of time. Cells were washed once with warm M199 medium supplemented with 20% FCS and twice with serum-free M199 before fixation for 10 min in ice-cold PBS containing 4% paraformaldehyde. Cells were then rinsed with PBS and treated with a 10% bovine serum albumin (BSA) solution in PBS to reduce non-specific binding of antibodies. Plates were then sequentially incubated for 2 h at room temperature (RT) with primary anti-E-selectin monoclonal antibody (BBA2, R&D Systems, Minneapolis, Minn.) at a dilution of 1:2000 in PBS containing 5% BSA (PBS/BSA), and a secondary peroxidase-conjugated rabbit anti-mouse IgG (Sigma, St. Louis, Mo.) at a dilution of 1:4000 in PBS/BSA. After extensive washes in PBS/BSA and PBS alone, bound antibodies were detected using the TMB Microwell peroxidase substrate system (KPL). The reaction was stopped after 3-5 min by addition of 2.5 N sulfuric acid and the absorbance values were read at a wavelength of 450 nm. […]

[2] = system: TNF-α-mediated induction of E-selectin expression; test: TNF-α-mediated induction of E-selectin expression in HUVEC (cell-based ELISA); parameters: species or system human; conditions: TNF-α 10 ng/ml pre-incubated with PMB
DENV sNS1 secretion [3] = conditions: DENV-infected Vero cells; Flamand et al., 1999; cited from earlier work

## CCCCCCCCCCCCCCCC(=O)N[C@H](CN1CCCC1)[C@H](O)c1ccccc1 [P4, D-threo-1-phenyl-2-palmitoylamino-3-pyrrolidino-1-propanol]
DENV sNS1 secretion [1]; P4 alone, DENV-infected Vero cells, MOI 1, effect stated at 5 μM P4
  secretion of sNS1: significantly reduced; also recorded: interferes with sNS1 secretion
Vero cells
  cell viability: without compromising cell viability

## polymyxin B [PMB]
DENV sNS1 protein; HUVEC pulse treated with sNS1 (10 μg/ml) pre-incubated with PMB 2 and 10 μg/ml, 15 min-6 h, fixed at 6 h
  expression of E-selectin in response to the sNS1 protein: repressive effect
DENV sNS1 protein; no detectable LPS in purified sNS1 preparations
  sNS1-induced HUVEC (endothelial cell) activation: very efficiently block endothelial cell activation by sNS1; also recorded: abrogated the ability of DENV sNS1 to activate HUVEC; also recorded: blocks sNS1-induced HUVEC activation
[2]
  TNF-α-mediated induction of E-selectin expression: did not show any effect

## OC[C@H]1NC[C@@H](O)[C@@H](O)[C@@H]1O [DMJ, deoxymannojirymicin]
DENV sNS1 secretion [1]; P4 2 or 5 μM + DMJ 1 mM, DENV-infected Vero (kidney) cells
  sNS1 secretion, combination of P4 and DMJ: additional effect on P4 inhibition
DENV sNS1 secretion [3]
  sNS1 secretion, DMJ alone: impairs sNS1 secretion

From patent US20090275499A1, “NONSTRUCTURAL PROTEIN NS1 AS A NOVEL THERAPEUTIC TARGET AGAINST FLAVIVIRUSES” (priority 2008, published 2009)
